Measurements: ChEMBL document CHEMBL1148963, “Four new eudesmanes from Caragana intermedia and their biological activities” (J Nat Prod, 2004)
≈ marks a conversion by molar mass, not a printed value.

Tests used:
[1] = test system: Human immunodeficiency virus 1; experiment: Antiviral activity against HIV1 3B infected in human MT2 cells; assay type: functional, organism-based; settings: Human immunodeficiency virus 1, 3B
C2C12 = experiment: Increase in glucose consumption in mouse C2C12 cells assessed as improved glucose transformation; assay type: functional, cell-based
Pyricularia oryzae = experiment: Antimicrobial activity against Pyricularia oryzae P-2b; assay type: functional

Structure (SMILES) | IC50 [1] [µg/mL] | IC50 (C2C12) [µg/mL] | MIC (Pyricularia oryzae) [µg/mL]
C=C1CC[C@@H](O)[C@]2(C)CC[C@H](C(C)C)[C@@H](O)[C@H]12 | 10 (≈ 42 µM) |  | 
C=C1CC[C@@H](O)[C@]2(C)CC[C@@H](C(C)C)C[C@@]12O |  | 10.7 (≈ 44.9 µM) | 20 (≈ 83.9 µM)
C=C1CC[C@@H](O)[C@]2(C)CC[C@](O)(C(C)C)C[C@@H]12 |  |  | 16 (≈ 67.1 µM)
C=C1CC[C@@H](O)[C@]2(C)CC[C@@](O)(C(C)C)C[C@@H]12 |  |  | 12 (≈ 50.3 µM)
